Laboratory results from patent US12364702B2, “Highly active sting protein agonist compound” (ADLAI NORTYE BIOPHARMA CO., LTD., priority 2018, dated 2025).

Assays:
Type in all cases: cell-based
STING HAQ variant [1] = biological target: T1, STING HAQ variant (Homo sapiens, UniProt Q86WV6, G230A/R293Q/R71H); assay: SEAP reporter assay in HEK-Blue ISG KO-STING cells transfected with STING HAQ variant (Method 2); design: key: ratio of compound SEAP signal to 0.5% DMSO; details: 0.0625 ng STING vector (HAQ variant), compound 5 uM, 24 h, SEAP signal vs 0.5% DMSO
T1 construct: host or cells: HEK-Blue ISG KO-STING cells (Invivogen, hkb-kostg)
Text: (§1) Activation of STING can be determined using a SEAP reporter assay in HEK-Blue™ ISG KO-STING cells (Invivogen, cat #hkb-kostg) transfected with plasmids expressing STING variants (WT & HAQ) (referred to WO2017/175147A1). STING variants (WT & HAQ) vector were constructed based on STING-232H vector (Origene, RC208418). GFP vector (VT2069) was bought from Youbio. The detailed protocol as follows: HEK-Blue™ ISG KO-STING cells were harvest and seeding into 96 well plate and the final cell number was 0.8×10^5 cells/well. Transfections were prepared using Lipofectamine 2000 (Invitrogen, Cat #11668-027) following the manufacturer's instructions (Lipo2000/DNA=1/10), 20 ul of transfection suspension containing 1 ng (WT variant) or 0.0625 ng (HAQ variant) STING vector was added to cell culture plate and incubated at 37° C., 5% CO2 for 24 hours. After 24 hours incubation, compounds were added at proper concentration, the final DMSO concentration was 0.5%. After 24 h incubation, the supernatant was collected to detect SEAP signal using Great EscAPe SEAP chemiluminescence KIT (Clontech, cat #631738) and cells were collected to detect cell viability using CellTiter-Glo Luminescent Cell Viability Assay (Promega, cat #G7573) following the manufacturer's instructions. The data were described by the ratio of the stimulating signal of compounds to 0.5% DMSO.

STING = STING (Homo sapiens, UniProt Q86WV6); assay: IFN-β secretion from THP1 by STING activation (hIFNβ ELISA); details: THP1 cells; 24 h incubation; IFN-β in supernatant; top dose set according to solubility; read-out: hIFNβ ELISA (EC50)
Procedure, shortened: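 THP1 cells (2×10^6 cells/ml) exposed 24 h at 37° C, 5% CO2 to 8-point, 3-fold compound dilutions, 0.2% DMSO final, top dose set by solubility. Secreted IFN-β in supernatant measured by human IFNβ ELISA; EC50 from curve fitting.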

STING WT variant [2] = biological target: T2, STING WT variant (Homo sapiens, UniProt Q86WV6); assay: SEAP reporter assay in HEK-Blue ISG KO-STING cells transfected with STING WT variant (Method 2); design: key: ratio of compound SEAP signal to 0.5% DMSO; details: 1 ng STING vector (WT variant), compound 2.5 uM, 24 h, SEAP signal vs 0.5% DMSO
T2 construct: host or cells: HEK-Blue ISG KO-STING cells (Invivogen, hkb-kostg)
Text: as §1

STING HAQ variant [3] = biological target: T1, STING HAQ variant; assay: SEAP reporter assay in HEK-Blue ISG KO-STING cells transfected with STING HAQ variant (Method 1); details: compound 7.8 uM, 24 h, SEAP signal vs 0.5% DMSO
Procedure, shortened: (§2)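 HEK-Blue ISG KO-STING cells transfected with 1 ng STING variant plasmid for 24 h at 37 °C, then compound-treated 24 h (0.5% DMSO final). SEAP chemiluminescence read in supernatant; viability by CellTiter-Glo. Values are compound signal relative to 0.5% DMSO.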

STING WT variant [4] = biological target: T2, STING WT variant; assay: SEAP reporter assay in HEK-Blue ISG KO-STING cells transfected with STING WT variant (Method 1); details: compound 7.8 uM, 24 h, SEAP signal vs 0.5% DMSO
Procedure, shortened: as §2

STING, sequence (Q86WV6 whole entry): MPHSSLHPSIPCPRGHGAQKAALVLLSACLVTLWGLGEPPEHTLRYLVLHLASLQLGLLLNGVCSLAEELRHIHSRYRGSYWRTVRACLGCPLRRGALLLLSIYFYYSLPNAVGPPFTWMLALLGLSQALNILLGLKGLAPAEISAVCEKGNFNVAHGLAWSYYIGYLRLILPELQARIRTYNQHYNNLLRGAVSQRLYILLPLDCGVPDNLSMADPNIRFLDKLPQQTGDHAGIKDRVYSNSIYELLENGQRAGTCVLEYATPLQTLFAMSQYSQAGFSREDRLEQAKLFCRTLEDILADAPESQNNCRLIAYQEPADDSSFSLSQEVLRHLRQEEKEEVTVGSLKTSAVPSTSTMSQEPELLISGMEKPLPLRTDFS
T1 sequence (Q86WV6 whole entry R71H/G230A/R293Q): as the sequence (Q86WV6 whole entry) above, with R71H, G230A, R293Q counted along it

Compound	Fold change related to DMSO control HAQ (STING HAQ variant [1])	EC50 (STING) [µM]	Fold change related to DMSO control WT (STING WT variant [2])	Fold change related to DMSO control HAQ (STING HAQ variant [3])	Fold change related to DMSO control WT (STING WT variant [4])
CCn1nc(C)cc1C(=O)Nc1nc2cc(C(N)=O)cc(OCCCOC)c2n1CCC[C@H]1COc2cc(C(N)=O)cc3nc(NC(=O)c4c(F)c(C)nn4CC)n1c23 [Example 50, (S)-3-(3-(5-carbamoyl-2-(1-ethyl-3-methyl-1H-pyrazole-5-carboxamido)-7-(3-methoxypropoxy)-1H-benzo[d]imidazol-1-yl)propyl)-2-(1-ethyl-4-fluoro-3-methyl-1H-pyrazole-5-carboxamido)-3,4-dihydro-5-oxa-1,2a-diazaacenaphthylene-7-carboxamide]	32.38	1.6	8.92		
CCn1nc(C)cc1C(=O)Nc1nc2cc(C(N)=O)cc(OCCCOC)c2n1CCC[C@H]1COc2cc(C(N)=O)cc3nc(NC(=O)c4cc(C)nn4CC)n1c23 [Example 1, (S)-3-(3-(5-Carbamoyl-2-(1-ethyl-3-methyl-1H-pyrazole-5-carboxamido)-7-(3-methoxypropoxy)-1H-benzo[d]imidazol-1-yl)propyl)-2-(1-ethyl-3-methyl-1H-pyrazole-5-carboxamido)-3,4-dihydro-5-oxa-1,2a-diazaacenaphthylene-7-carboxamide]	24.13	2.1	13.65	36.93	2.29
CCn1nc(C)cc1C(=O)Nc1nc2cc(C(N)=O)cc(OCCCNC(=O)CN3CCC(O)CC3)c2n1CCC[C@H]1COc2cc(C(N)=O)cc3nc(NC(=O)c4cc(C)nn4CC)n1c23 [Example 40, (S)-3-(3-(5-carbamoyl-2-(1-ethyl-3-methyl-1H-pyrazole-5-carboxamido)-7-(3-(2-(4-hydroxypiperidin-1-yl)acetamido)propoxy)-1H-benzo[d]imidazol-1-yl)propyl)-2-(1-ethyl-3-methyl-1H-pyrazole-5-carboxamido)-3,4-dihydro-5-oxa-1,2a-diazaacenaphthylene-7-carboxamide]	13.94	4.7	7.82		
CCn1nc(C)cc1C(=O)Nc1nc2cc(C(N)=O)cc(OCCCNS(=O)(=O)CCN)c2n1CCC[C@H]1COc2cc(C(N)=O)cc3nc(NC(=O)c4cc(C)nn4CC)n1c23 [Example 44, (S)-3-(3-(7-(3-(2-aminoethylsulfonamido)propoxy)-5-carbamoyl-2-(1-ethyl-3-methyl-1H-pyrazole-5-carboxamido)-1H-benzo[d]imidazol-1-yl)propyl)-2-(1-ethyl-3-methyl-1H-pyrazole-5-carboxamido)-3,4-dihydro-5-oxa-1,2a-diazaacenaphthylene-7-carboxamide]	31.46	> 39.7	6.47		
CCn1nc(C)cc1C(=O)Nc1nc2cc(C(N)=O)cc(OCCCNC(=O)CN3CCC(OC)CC3)c2n1CCC[C@H]1COc2cc(C(N)=O)cc3nc(NC(=O)c4cc(C)nn4CC)n1c23 [Example 42, (S)-3-(3-(5-carbamoyl-2-(1-ethyl-3-methyl-1H-pyrazole-5-carboxamido)-7-(3-(2-(4-methoxypiperidin-1-yl)acetamido)propoxy)-1H-benzo[d]imidazol-1-yl)propyl)-2-(1-ethyl-3-methyl-1H-pyrazole-5-carboxamido)-3,4-dihydro-5-oxa-1,2a-diazaacenaphthylene-7-carboxamide]	17.42	2.2	10.04		
CCn1nc(C)cc1C(=O)Nc1nc2cc(C(N)=O)cc(OCCCNC(=O)CN3CCOCC3)c2n1CCC[C@H]1COc2cc(C(N)=O)cc3nc(NC(=O)c4c(F)c(C)nn4CC)n1c23 [Example 53, (S)-3-(3-(5-carbamoyl-2-(1-ethyl-3-methyl-1H-pyrazole-5-carboxamido)-7-(3-(2-morpholinoacetamido)propoxy)-1H-benzo[d]imidazol-1-yl)propyl)-2-(1-ethyl-4-fluoro-3-methyl-1H-pyrazole-5-carboxamido)-3,4-dihydro-5-oxa-1,2a-diazaacenaphthylene-7-carboxamide]	17.39	1.2	10.85		
CCn1nc(C)cc1C(=O)Nc1nc2cc(C(N)=O)cc(OCCCNS(=O)(=O)C3CCNCC3)c2n1CCC[C@H]1COc2cc(C(N)=O)cc3nc(NC(=O)c4cc(C)nn4CC)n1c23 [Example 45, (S)-3-(3-(5-carbamoyl-2-(1-ethyl-3-methyl-1H-pyrazole-5-carboxamido)-7-(3-(piperidine-4-sulfonamido)propoxy)-1H-benzo[d]imidazol-1-yl)propyl)-2-(1-ethyl-3-methyl-1H-pyrazole-5-carboxamido)-3,4-dihydro-5-oxa-1,2a-diazaacenaphthylene-7-carboxamide]	21.63	> 50	4.43		
CCn1nc(C)cc1C(=O)Nc1nc2cc(C(N)=O)cc(OCCCO)c2n1CCC[C@H]1CN(C)c2cc(C(N)=O)cc3nc(NC(=O)c4cc(C)nn4CC)n1c23 [Example 57, (S)-4-(3-(5-carbamoyl-2-(1-ethyl-3-methyl-1H-pyrazole-5-carboxamido)-7-(3-hydroxypropoxy)-1H-benzo[d]imidazol-1-yl)propyl)-2-(1-ethyl-3-methyl-1H-pyrazole-5-carboxamido)-6-methyl-5,6-dihydro-4H-imidazo[1,5,4-de]quinoxaline-8-carboxamide]	23.35	2.6	11.24		
CCn1nc(C)cc1C(=O)Nc1nc2cc(C(N)=O)cc(OCCCNC(=O)CN(C)C)c2n1CCC[C@H]1COc2cc(C(N)=O)cc3nc(NC(=O)c4c(Cl)c(C)nn4CC)n1c23 [Example 54, (S)-3-(3-(5-carbamoyl-7-(3-(2-(dimethylamino)acetamido)propoxy)-2-(1-ethyl-3-methyl-1H-pyrazole-5-carboxamido)-1H-benzo[d]imidazol-1-yl)propyl)-2-(4-chloro-1-ethyl-3-methyl-1H-pyrazole-5-carboxamido)-3,4-dihydro-5-oxa-1,2a-diazaacenaphthylene-7-carboxamide]	19.74	5.2	13.02		
CCn1nc(C)cc1C(=O)Nc1nc2cc(C(N)=O)cc(OCCCNC(=O)CN3CCOCC3)c2n1CCC[C@H]1COc2cc(C(N)=O)cc3nc(NC(=O)c4c(Cl)c(C)nn4CC)n1c23 [Example 55, (S)-3-(3-(5-carbamoyl-2-(1-ethyl-3-methyl-1H-pyrazole-5-carboxamido)-7-(3-(2-morpholinoacetamido)propoxy)-1H-benzo[d]imidazol-1-yl)propyl)-2-(4-chloro-1-ethyl-3-methyl-1H-pyrazole-5-carboxamido)-3,4-dihydro-5-oxa-1,2a-diazaacenaphthylene-7-carboxamide]	26.34	1.2	11.71		
CCn1nc(C)c(F)c1C(=O)Nc1nc2cc(C(N)=O)cc(OCCCOC)c2n1CCC[C@H]1COc2cc(C(N)=O)cc3nc(NC(=O)c4c(F)c(C)nn4CC)n1c23 [Example 49, (S)-3-(3-(5-carbamoyl-2-(1-ethyl-4-fluoro-3-methyl-1H-pyrazole-5-carboxamido)-7-(3-methoxypropoxy)-1H-benzo[d]imidazol-1-yl)propyl)-2-(1-ethyl-4-fluoro-3-methyl-1H-pyrazole-5-carboxamido)-3,4-dihydro-5-oxa-1,2a-diazaacenaphthylene-7-carboxamide]	27.58	0.5	11.17		
